From US20030224074A1, “Composition for the protection and regeneration of nerve cells containing the extract of Scutellaria Radix” (EUGENBIO INC., priority 2001, published 2003)
“Also recorded” adds a separate entry of the source.

Tests used:
SH-SY5Y = assay: Neurite regeneration in human neuroblastoma SH-SY5Y; type: cell-based; details: extract 50 μg/ml, retinoic acid 50 μM
Protocol: Retinoic acid and NGF inducing neurite growth were used as positive control groups.
(§1) PC12 cells and SH-SY5Y cells were incubated in DMEM supplemented with 10% FBS. In order to differentiate the cells, NGF or retinoic acid was treated in a serum-free medium.
(§2) Retinoic acid (50 μM) and NGF (50 ng/ml) inducing neurite growth were used as positive controls.

PC12 cells = assay: Neurite regeneration and quantitative comparison of neurites in PC12 cell line; type: cell-based, rat; details: NGF 50 ng/ml, 3 days
Protocol: as §1, §2
Subsequently, the length of neurites in each group was measured.
2) Differentiation index was scored as follows: no neurite expression (0), the length of expressed neurites was less than the diameter of cell bodies (1), the length of expressed neurites was similar to the diameter of cell bodies (2), the length of expressed neurites was less than two times as long as the diameter of cell bodies (3), and the length of expressed neurites was more than two times as long as the diameter of cell bodies, or the expressed neurites form synapses together with other nerve cells (4). 200 differentiated cells from each microculture well were defined as one unit, and five units were statistically analyzed.

HiB5 cells = assay: Induction of differentiation of HiB5 neuronal stem cells (neurofilament immunostaining, confocal microscope); type: cell-based, white rat
Protocol: A positive control group was treated with bFGF to induce the differentiation into nerve cells.
Cell culture medium was prepared by adding a mixture of 10% FBS (fetal bovine serum), penicillin/streptomycin, glutamine and sodium pyruvate (0.11 g/L) to DMEM. On differentiating at 39 C, another cell culture medium was prepared by adding pyruvate to a serum-free medium (N2, containing DMEM/F12, insulin, transferrin, Putreseine and BSA; Botten Stein & Sato., 1979).
Tissue sections were fixed with 4% paraformaldehyde and cryosected to a thickness of […]. The cryosected tissue sections were stained with nerve cell- or astrocyte-labeled antibody and FITC-labeled secondary antibody before examining under a confocal microscope. In order to stain with nerve cell-labeled antibody, cultured cells were fixed with 4% paraformaldehyde for 20 minutes, permeated in 0.5% NP-40 for 5 minutes, and blocked using 1% BSA solution for 30 minutes. […]
The cultured cells were immunostained with nerve cell-specific labeled molecule, and then neurite growth was observed under a confocal microscope. […] The differentiation degree was measured by double-staining neurites with nerve cell-specific labeled molecule (anti-neurofilament antibody) and FITC-labeled secondary antibody (green), followed by staining cell nuclei with propidium iodide (red).

CC1=C(/C=C/C(C)=C/C=C/C(C)=C/C(=O)O)C(C)(C)CCC1 [Retinoic acid]
Average (%) of differentiated cells (SH-SY5Y): 81.59%

NGF: Nerve Growth Factor, positive control inducing neurite growth in PC12 cells
development of neurites (PC12 cells): development of neurites

bFGF: basic fibroblast growth factor, positive control inducing differentiation of HiB5 cells into nerve cells
cell survival (HiB5 cells; bFGF 20 ng/ml): increased | differentiation into nerve cells (HiB5 cells; extract 50 μg/ml or bFGF 20 ng/ml): induced the differentiation into nerve cells; also recorded: differentiated into nerve cells
